Source: patent US20070004791A1, “3,6-disubstituted azabicyclo {3.1.0} hexane derivatives useful as muscarnic receptor antagonists” (priority 2002, published 2007)

Tests used:
bladder pressure = assay: In vivo anaesthetized rabbit, carbachol-induced bladder pressure; settings: bladder selectivity expressed as fold of selectivity of oxybutynin in the same model
M2 muscarinic receptor = molecular target: T1, M2 muscarinic receptor (Rattus norvegicus, UniProt P10980); assay: biochemical; assay type: binding; settings: Receptor Binding Assay M2 pKi
T1 construct: Submandibular glands and heart were isolated and placed in ice cold homogenising buffer; from tissue; host or cells: rat heart membrane homogenate
T1 sequence (P10980 1-466): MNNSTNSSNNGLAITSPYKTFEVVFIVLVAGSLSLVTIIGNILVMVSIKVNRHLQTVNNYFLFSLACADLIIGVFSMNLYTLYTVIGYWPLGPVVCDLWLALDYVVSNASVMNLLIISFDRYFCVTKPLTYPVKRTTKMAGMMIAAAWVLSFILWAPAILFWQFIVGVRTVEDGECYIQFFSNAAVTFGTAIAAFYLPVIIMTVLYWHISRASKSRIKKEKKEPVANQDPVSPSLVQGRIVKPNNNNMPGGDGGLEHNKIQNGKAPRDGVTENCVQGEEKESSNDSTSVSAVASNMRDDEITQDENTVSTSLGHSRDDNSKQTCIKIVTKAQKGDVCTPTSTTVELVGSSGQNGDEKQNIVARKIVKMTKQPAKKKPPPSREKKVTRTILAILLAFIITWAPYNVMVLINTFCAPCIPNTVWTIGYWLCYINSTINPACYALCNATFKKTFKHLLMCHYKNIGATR

M3 muscarinic receptor [1] = molecular target: T2, M3 muscarinic receptor (Rattus norvegicus, UniProt P08483)
T2 sequence (P08483 whole entry): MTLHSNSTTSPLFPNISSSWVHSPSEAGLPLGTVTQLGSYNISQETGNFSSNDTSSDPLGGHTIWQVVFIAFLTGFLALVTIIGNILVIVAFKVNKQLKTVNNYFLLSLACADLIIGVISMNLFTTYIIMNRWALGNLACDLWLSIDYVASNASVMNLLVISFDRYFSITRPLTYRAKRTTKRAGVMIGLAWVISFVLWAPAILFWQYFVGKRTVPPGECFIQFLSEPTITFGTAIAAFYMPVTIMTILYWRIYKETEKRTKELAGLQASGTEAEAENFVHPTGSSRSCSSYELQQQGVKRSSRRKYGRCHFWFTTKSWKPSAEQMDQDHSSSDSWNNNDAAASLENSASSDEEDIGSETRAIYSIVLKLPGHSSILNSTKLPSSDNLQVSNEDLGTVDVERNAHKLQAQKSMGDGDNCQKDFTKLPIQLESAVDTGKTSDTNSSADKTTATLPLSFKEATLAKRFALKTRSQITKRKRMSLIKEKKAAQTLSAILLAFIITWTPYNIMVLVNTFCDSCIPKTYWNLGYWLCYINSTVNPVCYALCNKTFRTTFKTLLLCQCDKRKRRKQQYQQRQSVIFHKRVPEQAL

M3 muscarinic receptor [2] = molecular target: T2, M3 muscarinic receptor; assay: biochemical; settings: Receptor Binding Assay M3 pKi

SMILES	Fold of Oxybutynin (bladder pressure)	Ki (M2 muscarinic receptor) [nM]	melting point [°C]	Receptor Binding Assay Selectivity M2/M3 (M3 muscarinic receptor [1])	Ki (M3 muscarinic receptor [2]) [nM]
O=C(NCC1C2CN(Cc3ccccc3)CC12)[C@@](O)(c1ccccc1)C1CCCC1.O=C(O)C(O)C(O)C(=O)O (stereo partly drawn) [Compound No. 36, (2S)-(−)-(1α,5α,6α)-N-[3-benzyl-3-azabicyclo[3.1.0]hexyl-6(aminomethyl)-yl]-2-hydroxy-2-cyclopentyl-2-phenylacetamide. L(+)-tartrate salt]	2.17				
O=C(NC[C@@H]1[C@H]2CN(Cc3ccccc3)C[C@@H]12)C(O)(c1ccccc1)C1CCCC1 (stereo partly drawn) [Compound No. 3, (1α,5α,6α)-N-[3-benzyl-3-azabicyclo[3.1.0]hexyl-6(aminomethyl)-yl]-2-hydroxy-2-cyclopentyl-2-phenyl acetamide]		95.5	131 to 134	16	5.89
O=C(NCC1C2CN(Cc3ccccc3)CC12)[C@](O)(c1ccccc1)C1CCCC1.O=C(O)C(O)C(O)C(=O)O (stereo partly drawn) [Compound No. 35, (2R)-(+)-(1α,5α,6α)-N-[3-benzyl-3-azabicyclo[3.1.0]hexyl-6-(aminomethyl)-yl]-2-hydroxy-2-cyclopentyl-2-phenylacetamide. L(+)-tartrate salt]	3.45				
CC(NC(=O)C(O)(c1ccccc1)C1CCCC1)[C@H]1[C@@H]2CN(Cc3ccccc3)C[C@@H]21 (stereo partly drawn) [Compound No. 25, (1α,5α,6α)-N-[3-benzyl-3-azabicyclo[3.1.0]hexyl-6-(1-aminoethyl)-yl]-2-hydroxy-2-cyclopentyl-2-phenyl acetamide]		427		17	25.1
CC(C)=CCCN1CC2C(CNC(=O)C(O)(c3ccccc3)C3CCCC3)C2C1 (stereo not drawn) [Compound No. 16, (1α,5α,6α)-N-[3-(4-methyl-3-pentenyl)-3-azabicyclo[3.1.0]hexyl-6-(aminomethyl)-yl]-2-hydroxy-2-cyclopentyl-2-phenyl acetamide]		178		7.6	23.4
O=C(NCC1C2CN(CCc3ccc4c(c3)CCO4)CC12)C(O)(c1ccccc1)C1CCCC1 (stereo not drawn) [Compound No. 10, (1α,5α,6α)-N-[3-(2-(2,3-dihydrobenzofuran-5-yl)ethyl)-3-azabicyclo[3.1.0]hexyl-6-(aminomethyl)-yl]-2-hydroxy-2-cyclopentyl-2-phenyl acetamide]		339		10.47	32.4
CC(NC(=O)C(O)(c1ccccc1)C1CCCCC1)[C@H]1[C@@H]2CN(Cc3ccccc3)C[C@@H]21 (stereo partly drawn) [Compound No. 24, (1α,5α,6α)-N-[3-benzyl-3-azabicyclo[3.1.0]hexyl-6-(1-aminoethyl)-yl]-2-hydroxy-2-cyclohexyl-2-phenyl acetamide]		275		8.9	30.9
